How the values were obtained:
Human P2Y12 receptor = molecular target: T1, Human P2Y12 receptor (Homo sapiens, UniProt Q9H244); test: Human P2Y12 receptor cell membrane binding assay with [3H] 2-Mes-ADP; details: 1 nM [3H] 2-Mes-ADP, membranes of HEK cells expressing P2Y12 receptor; read-out: Binding activity (IC50)
T1 construct: expressed in transfected cells; host or cells: HEK cells
How it was run: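 Competition binding used 1 nM [3H]2-MeS-ADP on P2Y12-expressing HEK cell membranes for 1 h at room temperature, followed by filtration and scintillation counting.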

[1] = system: Human platelet aggregation caused by ADP; test: Inhibition of ADP-induced platelet aggregation (Mimic-human PRP); type: cell-based; details: 20 μM ADP, human platelet concentrate diluted with PPP, absorption at 595 nm
How it was run: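 Ki came from non-linear sigmoidal fits of inhibition, measured as the 3-min rise in absorbance at 595 nm after 20 μM ADP, relative to 0/20 μM ADP controls. Platelets (3–4×10^8/mL in PPP-diluted human PRP) were exposed to 0.01–30 μM compound for 20 min at room temperature beforehand.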

T1 sequence (Q9H244 whole entry): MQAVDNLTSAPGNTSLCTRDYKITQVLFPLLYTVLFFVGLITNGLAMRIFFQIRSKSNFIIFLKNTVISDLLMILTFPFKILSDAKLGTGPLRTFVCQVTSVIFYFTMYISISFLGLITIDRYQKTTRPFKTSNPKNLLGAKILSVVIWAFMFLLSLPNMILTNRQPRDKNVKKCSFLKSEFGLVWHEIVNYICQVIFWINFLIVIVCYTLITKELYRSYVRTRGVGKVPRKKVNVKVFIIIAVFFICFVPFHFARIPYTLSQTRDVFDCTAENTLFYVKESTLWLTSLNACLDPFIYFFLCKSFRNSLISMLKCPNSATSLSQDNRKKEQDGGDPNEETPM

`CCCc1cc2c(N3CCn4c(nnc4C(F)(F)F)C3)nc(N3CCC[C@H]3C(=O)OCOC(=O)C(C)(C)C)nc2s1` [Example 1-52, (S)-1-[6-Propyl-4-(3-trifluoromethyl-5,6-dihydro-8H-[1,2,4]triazolo[4,3-a]pyrazin-7-yl)-thieno[2,3-d]pyrimidin-2-yl]-pyrrolidine-2-carboxylic acid 2,2-dimethyl-propionyloxymethyl ester] was tested, and the IC50 (Human P2Y12 receptor) was 1030 nM and the Ki [1] was over 4000 nM.

For `CCCc1nc2c(N3CCn4c(nnc4C(F)(F)F)C3)nc(N3CC[C@H](N)C3)nc2s1` [Example 5-5, (S)-1-[2-Propyl-7-(3-trifluoromethyl-5,6-dihydro-8H-[1,2,4]triazolo[4,3-a]pyrazin-7-yl)-thiazolo[5,4-d]pyrimidin-5-yl]-pyrrolidin-3-ylamine], the IC50 (Human P2Y12 receptor) was 170 nM and the Ki [1] was 25 nM.

Compound `O=C1CN(c2nc(N3CCn4c(nnc4C(F)(F)F)C3)c3cc(CCC(F)(F)F)sc3n2)CCN1` [Example 2-19, 4-[4-(3-Trifluoromethyl-5,6-dihydro-8H-[1,2,4]triazolo[4,3-a]pyrazin-7-yl)-6-(3,3,3-trifluoro-propyl)-thieno[2,3-d]pyrimidin-2-yl]-piperazin-2-one] has an IC50 (Human P2Y12 receptor) of 362 nM and a Ki [1] of 550 nM.

`CCCCc1cc2c(N3CCn4c(nnc4C(F)(F)F)C3)nc(NCCO)nc2s1` [Example 2-15, 2-[6-Butyl-4-(3-trifluoromethyl-5,6-dihydro-8H-[1,2,4]triazolo[4,3-a]pyrazin-7-yl)-thieno[2,3-d]pyrimidin-2-ylamino]-ethanol] was tested, and the IC50 (Human P2Y12 receptor) was 240 nM and the Ki [1] was 223 nM.

`CCCc1cc2c(N3CCn4c(nnc4C(F)(F)F)C3)nc(NCCC(=O)O)nc2s1` [Example 1-44, 3-[6-Propyl-4-(3-trifluoromethyl-5,6-dihydro-8H-[1,2,4]triazolo[4,3-a]pyrazin-7-yl)-thieno[2,3-d]pyrimidin-2-ylamino]-propionic acid] gave an IC50 (Human P2Y12 receptor) of 59 nM and a Ki [1] of 260 nM.

`CCCc1cc2c(N3CCn4c(nnc4C(F)(F)F)C3)nc(OCCNS(C)(=O)=O)nc2s1` [Example 3-64, N-{2-[6-Propyl-4-(3-trifluoromethyl-5,6-dihydro-8H-[1,2,4]triazolo[4,3-a]pyrazin-7-yl)-thieno[2,3-d]pyrimidin-2-yloxy]-ethyl}-methanesulfonamide] gave an IC50 (Human P2Y12 receptor) of 110 nM and a Ki [1] of 150 nM.

Work on `CCCc1cc2c(N3CCn4c(nnc4C(F)(F)F)C3)nc(Oc3ccc(OCC(=O)OC)cc3)nc2s1` [Example 3-43, {4-[6-Propyl-4-(3-trifluoromethyl-5,6-dihydro-8H-[1,2,4]triazolo[4,3-a]pyrazin-7-yl)-thieno[2,3-d]pyrimidin-2-yloxy]-phenoxy}-acetic acid methyl ester] yielded an IC50 (Human P2Y12 receptor) of 650 nM and a Ki [1] of over 4000 nM.

For `CCCc1cc2c(N3CCn4c(nnc4C(F)(F)F)C3)nc(N3CC[C@H](N)C3)nc2s1` [Example 1-14, (S)-1-[6-Propyl-4-(3-trifluoromethyl-5,6-dihydro-8H-[1,2,4]triazolo[4,3-a]pyrazin-7-yl)-thieno[2,3-d]pyrimidin-2-yl]-pyrrolidin-3-ylamine], the IC50 (Human P2Y12 receptor) was 60 nM and the Ki [1] was 34 nM.

Work on `CCCc1cc2c(N3CCn4c(nnc4C(F)(F)C(F)(F)F)C3)nc(N3CCNCC3)nc2s1` [Example 6-5, 3-Pentafluoroethyl-7-(2-piperazin-1-yl-6-propyl-thieno[2,3-d]pyrimidin-4-yl)-5,6,7,8-tetrahydro-[1,2,4]triazolo[4,3-a]pyrazine] yielded an IC50 (Human P2Y12 receptor) of 266 nM and a Ki [1] of 940 nM.

For `CCCc1cc2c(N3CCn4c(nnc4C(F)(F)F)C3)nc(COc3ccccc3C(=O)O)nc2s1` [Example 4-25, 2-[6-Propyl-4-(3-trifluoromethyl-5,6-dihydro-8H-[1,2,4]triazolo[4,3-a]pyrazin-7-yl)thieno[2,3-d]pyrimidin-2-ylmethoxy]benzoic acid], the IC50 (Human P2Y12 receptor) was 353 nM and the Ki [1] was 1900 nM.

Work on `CCCc1cc2c(N3CCn4c(nnc4C(F)(F)F)C3)nc(Cc3nc(C(=O)O)cs3)nc2s1` [Example 4-58, 2-[6-Propyl-4-(3-trifluoromethyl-5,6-dihydro-8H-[1,2,4]triazolo[4,3-a]pyrazin-7-yl)-thieno[2,3-d]pyrimidin-2-ylmethyl]-thiazole-4-carboxylic acid] yielded an IC50 (Human P2Y12 receptor) of 300 nM and a Ki [1] of 243 nM.

`CCCc1cc2c(N3CCn4c(nnc4C(F)(F)F)C3)nc(N3CC[C@H](NC(=O)CCO)C3)nc2s1` [Example 1-109, 3-Hydroxy-N-{(S)-1-[6-propyl-4-(3-trifluoromethyl-5,6-dihydro-8H-[1,2,4]triazolo[4,3-a]pyrazin-7-yl)-thieno[2,3-d]pyrimidin-2-yl]-pyrrolidin-3-yl}-propionamide] was tested, and the IC50 (Human P2Y12 receptor) was 80 nM and the Ki [1] was 26 nM.

`CCCc1cc2c(N3CCn4c(nnc4C(F)(F)F)C3)nc(N3CC[C@H](NCCO)C3)nc2s1` [Example 1-99, 2-{(S)-1-[6-Propyl-4-(3-trifluoromethyl-5,6-dihydro-8H-[1,2,4]triazolo[4,3-a]pyrazin-7-yl)-thieno[2,3-d]pyrimidin-2-yl]-pyrrolidin-3-ylamino}-ethanol] gave an IC50 (Human P2Y12 receptor) of 130 nM and a Ki [1] of 43 nM.

Work on `CCCc1cc2c(N3CCn4c(nnc4C(F)(F)F)C3)nc(N3CCC[C@@H]3C(=O)O)nc2s1` [Example 1-54, (R)-1-[6-Propyl-4-(3-trifluoromethyl-5,6-dihydro-8H-[1,2,4]triazolo[4,3-a]pyrazin-7-yl)-thieno[2,3-d]pyrimidin-2-yl]-pyrrolidine-2-carboxylic acid] yielded an IC50 (Human P2Y12 receptor) of 143 nM and a Ki [1] of 130 nM.

With `CCCc1cc2c(N3CCn4c(nnc4C(F)(F)F)C3)nc(NCCO)nc2s1` [Example 1-10, 2-[6-Propyl-4-(3-trifluoromethyl-5,6-dihydro-8H-[1,2,4]triazolo[4,3-a]pyrazin-7-yl)-thieno[2,3-d]pyrimidin-2-ylamino]-ethanol] the IC50 (Human P2Y12 receptor) was 110 nM and the Ki [1] was 178 nM.

For `CCCc1cc2c(N3CCn4c(nnc4C(F)(F)F)C3)nc(C3=N[C@H](CC(=O)O)CS3)nc2s1` [Example 4-49, {(R)-2-[6-Propyl-4-(3-trifluoromethyl-5,6-dihydro-8H-[1,2,4]triazolo[4,3-a]pyrazin-7-yl)thieno[2,3-d]pyrimidin-2-yl]-4,5-dihydro-thiazol-4-yl}acetic acid], the IC50 (Human P2Y12 receptor) was 33 nM and the Ki [1] was 11 nM.

With `CCCc1cc2c(N3CCn4c(nnc4C(F)(F)F)C3)nc(Oc3cccc(N4CCNCC4)c3)nc2s1` [Example 3-45, 7-[2-(3-piperazin-1-yl-phenoxy)-6-propyl-thieno[2,3-d]pyrimidin-4-yl]-3-trifluoromethyl-5,6,7,8-tetrahydro-[1,2,4]triazolo[4,3-a]pyrazine] the IC50 (Human P2Y12 receptor) was 1900 nM and the Ki [1] was over 4000 nM.

In the case of `CCCc1cc2c(N3CCn4c(nnc4C(F)(F)F)C3)nc(N3CCC[C@H]3C(=O)O)nc2s1` [Example 1-50, (S)-1-[6-Propyl-4-(3-trifluoromethyl-5,6-dihydro-8H-[1,2,4]triazolo[4,3-a]pyrazin-7-yl)-thieno[2,3-d]pyrimidin-2-yl]-pyrrolidine-2-carboxylic acid], the IC50 (Human P2Y12 receptor) is reported as 110 nM and the Ki [1] is reported as 40 nM.

In the case of `CCCc1cc2c(N3CCn4c(nnc4C(F)(F)F)C3)nc(N3CCCC(CO)C3)nc2s1` (centres unmarked) [Example 1-29, {1-[6-Propyl-4-(3-trifluoromethyl-5,6-dihydro-8H-[1,2,4]triazolo[4,3-a]pyrazin-7-yl)-thieno[2,3-d]pyrimidin-2-yl]-piperidin-3-yl}-methanol], the IC50 (Human P2Y12 receptor) is reported as 50 nM and the Ki [1] is reported as 60 nM.

`CCCc1cc2c(N3CCn4c(nnc4C(F)(F)F)C3)nc(COc3cccc(C(=O)O)c3)nc2s1` [Example 4-26, 3-[6-Propyl-4-(3-trifluoromethyl-5,6-dihydro-8H-[1,2,4]triazolo[4,3-a]pyrazin-7-yl)thieno[2,3-d]pyrimidin-2-ylmethoxy]benzoic acid] gave an IC50 (Human P2Y12 receptor) of 160 nM and a Ki [1] of 2100 nM.

In the case of `CCCc1cc2c(N3CCn4c(nnc4C(F)(F)F)C3)nc(SCc3ccccc3)nc2s1` [Example 3-51, 7-(2-Benzylsulfanyl-6-propyl-thieno[2,3-d]pyrimidin-4-yl)-3-trifluoromethyl-5,6,7,8-tetrahydro-[1,2,4]triazolo[4,3-a]pyrazine], the IC50 (Human P2Y12 receptor) is reported as 700 nM and the Ki [1] is reported as 1170 nM.

For `CCCc1cc2c(N3CCn4c(nnc4C(F)(F)F)C3)nc(N3CC[C@H](NC(=O)CC#N)C3)nc2s1` [Example 1-103, 2-Cyano-N-{(S)-1-[6-propyl-4-(3-trifluoromethyl-5,6-dihydro-8H-[1,2,4]triazolo[4,3-a]pyrazin-7-yl)-thieno[2,3-d]pyrimidin-2-yl]-pyrrolidin-3-yl}-acetamide], the IC50 (Human P2Y12 receptor) was 50 nM and the Ki [1] was 6.6 nM.

`CCCc1cc2c(N3CCn4c(nnc4C(F)(F)F)C3)nc(-c3nnc(CCOC)o3)nc2s1` [Example 4-37, 7-{2-[5-(2-Methoxyethyl)-[1,3,4]oxadiazol-2-yl]-6-propyl-thieno[2,3-d]pyrimidin-4-yl}-3-trifluoromethyl-5,6,7,8-tetrahydro-[1,2,4]triazolo[4,3-a]pyrazine] gave an IC50 (Human P2Y12 receptor) of 192 nM and a Ki [1] of 250 nM.

With `CCCc1cc2c(N3CCn4c(nnc4C(F)(F)F)C3)nc(-c3nnc(COC)o3)nc2s1` [Example 4-35, 7-[2-(5-Methoxymethyl-[1,3,4]oxadiazol-2-yl)-6-propyl-thieno[2,3-d]pyrimidin-4-yl]-3-trifluoromethyl-5,6,7,8-tetrahydro-[1,2,4]triazolo[4,3-a]pyrazine] the IC50 (Human P2Y12 receptor) was 130 nM and the Ki [1] was 30 nM.

With `CCCc1cc2c(N3CCn4c(nnc4C(F)(F)F)C3)nc(N3CC(=NOC)C(N)C3)nc2s1` (centres unmarked) [Example 1-117, 4-Amino-1-[6-propyl-4-(3-trifluoromethyl-5,6-dihydro-8H-[1,2,4]triazolo[4,3-a]pyrazin-7-yl)-thieno[2,3-d]pyrimidin-2-yl]-pyrrolidin-3-one O-methyl-oxime] the IC50 (Human P2Y12 receptor) was 220 nM and the Ki [1] was 42 nM.

Reference: patent US20110166121A1 (LG LIFE SCIENCES LTD., priority 2008, published 2011)
